Data taken from US8597903B2, “Biotinidase assay” (Wallac Oy, priority 2009, dated 2013).

Legend:
biotinidase = biological target: T1, biotinidase (Homo sapiens, UniProt P43251); test: Heterogenous biotinidase assay (DELFIA); type: biochemical; settings: 10 nM substrate, blood spots, +37° C. for 2 hours, Eu signal by time-resolved fluorometer (FIG. 1-3)
T1 construct: The blood spots (diameter 3.2 mm) were punched to the wells; from tissue; host or cells: dried blood spots (whole blood)
T1 sequence (P43251 22-523): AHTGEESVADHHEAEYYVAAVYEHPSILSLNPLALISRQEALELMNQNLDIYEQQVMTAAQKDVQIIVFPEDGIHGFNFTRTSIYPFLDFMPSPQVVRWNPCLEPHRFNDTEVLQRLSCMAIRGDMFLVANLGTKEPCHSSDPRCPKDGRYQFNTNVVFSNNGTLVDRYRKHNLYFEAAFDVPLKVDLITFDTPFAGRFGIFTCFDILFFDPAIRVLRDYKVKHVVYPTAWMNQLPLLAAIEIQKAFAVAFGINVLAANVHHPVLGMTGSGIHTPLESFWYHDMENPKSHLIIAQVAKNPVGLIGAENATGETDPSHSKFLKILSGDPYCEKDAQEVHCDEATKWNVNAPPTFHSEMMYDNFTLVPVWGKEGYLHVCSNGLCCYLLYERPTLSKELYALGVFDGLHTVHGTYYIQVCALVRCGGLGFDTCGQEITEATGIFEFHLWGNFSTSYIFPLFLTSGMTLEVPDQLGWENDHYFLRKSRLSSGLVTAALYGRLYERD
Experimental: A heterogenous assay is based on the use of streptavidin-specific antibody, streptavidin and biotinidase substrates (compounds 3, 5 and 7). Accordingly, 200 μA of anti-streptavidin antibody (1 μg per well, Novus Biologicals cat. No. NB200-448) was pipetted to the wells of the microplate in coating buffer (50 mM TRIS pH 7.4+50 mM NaCl). The plate was incubated at RT for 3 h. After that the plate was washed 2 times with Delfia Wash solution. The blood spots (diameter 3.2 mm) were punched to the wells. 10 nM of biotinidase substrate was added to the wells in reaction buffer (50 mM MES pH 6, 0.05% BSA, 0.01% TWEEN, 50 mM NaCl). The plate was incubated with slow shaking at +37° C. for 2 hours. 100 μA 20 nM streptavidin in reaction buffer was added into the wells. The plate was incubated for 1 hour at RT with slow shaking. The plate was washed for 4 times with Delfia Wash solution. 200 μA of Delfia Inducer was added to the wells and incubated for 15 minutes at RT. The Eu signal was measured with a time-resolved fluorometer. The more there is biotinidase enzyme in the sample the lower the Eu signal is.

[1] = Storage stability of the substrate; type: physicochemical; settings: prolonged storage at ambient temperature
Experimental: Biocytin (8, 5 mg, 13 μmol) and the isothiocyanate chelate 9 (23 mg, 33 μmol) synthesized as disclosed in U.S. Pat. No. 4,920,195, were dissolved in the mixture of pyridine, water and triethylamine (9:1.5:01, v/v/v; 250 μL) and the mixture was stirred overnight at rt. The product was isolated by precipitation with acetone and purified with HPLC. Compound 10: ESI-TOF MS found, 1047.13; calcd for C40H46EuN8O12S^−1047.18.

Row | SMILES | function as a substrate for the enzyme in a biotinidase assay (biotinidase) | stability on storage [1]
1 | O=C(O)CN(CCN(CC(=O)O)CC(Cc1ccc(NC(=O)CCCCC2SCC3NC(=O)NC32)cc1)N(CC(=O)O)CC(=O)O)CC(=O)O (stereo not drawn) [Compound 3] | does not function as a substrate | 
2 | O=C(O)CN(CC(=O)O)Cc1cc(C#Cc2ccc(NC(=S)NC(CCCCNC(=O)CCCCC3SCC4NC(=O)NC43)C(=O)O)cc2)cc(CN(CC(=O)O)CC(=O)O)n1 (stereo not drawn) [Compound 10] |  | prone to Edman degradation
3 | O=C(O)CN(CCN(CC(=O)O)CC(Cc1ccc(NC(=O)CCCCCNC(=O)CCCCC2SCC3NC(=O)NC32)cc1)N(CC(=O)O)CC(=O)O)CC(=O)O (stereo not drawn) [Compound 5] | functions as a favorable substrate | 
